Laboratory results as given in patent US7317037B2, “Progesterone receptor modulators comprising pyrrole-oxindole derivatives and uses thereof” (Wyeth, priority 2004, dated 2008).

Assays:
[1] = Cynomolgus monkey intravenous pharmacokinetics; conditions: in vivo, cynomolgus monkeys, 0.25 mg/kg i.v.
Source text: Therefore from the preceding data it is clear that the R6=fluorine group present in 5-(7-fluoro-3,3-dimethyl-2-oxo-2,3-dihydro-1H-indol-5-yl)-1-methyl-1H-pyrrole-2-carbonitrile dramatically improves the pharmacokinetic performance of the molecule. This improved pharmacokinetic performance translates in the cynomolgus menses induction assay to a dramatic improvement in activity.

[2] = tested on: rat uterine decidualization; assay: Rat decidualization assay; format: in vivo; conditions: po, read-out: ED50 in the rat decidual assay
Protocol: B. Progestational and Antiprogestational Activity in Mature Ovariectomized Rats (Rat Decidualization Assay)
This assay is used to evaluate the effect of progestins and antiprogestins on rat uterine decidualization and compare the relative potencies of various test compounds.
Test compounds are dissolved in 100% ethanol and mixed with corn oil (vehicle). Stock solutions of the test compounds in oil (Mazola™) are then prepared by heating (˜80° C.) the mixture to evaporate ethanol. Test compounds are subsequently diluted with 100% corn oil or 10% ethanol in corn oil prior to the treatment of animals. No difference in decidual response is found when these two vehicles are compared. […]
Approximately 24 hr after the third injection, decidualization is induced in one of the uterine horns of anesthetized rats by scratching the antimesometrial luminal epithelium with a blunt 21 G needle. […] Approximately 24 hr following the final treatment, rats are sacrificed by […] and bodyweight measured. […]
In agonist mode, the increase in weight of the decidualized uterine horn is calculated by D-horn/C-horn and logarithmic transformation is used to maximize normality and homogeneity of variance. […] EC50 is calculated from the transformed value. […] IC50 is calculated from the retransformed value. […]

menses induction = assay: Cynomolgus monkey menses induction assay; format: in vivo; conditions: 5 mg/kg po
Protocol: C. Cynomolgus Monkey […] Induction 1. Experimental Design The effects of administered compound(s) in either a single dose or a dose-response paradigm versus an appropriate control (vehicle alone) are determined. When a compound is tested at a single dose, a group of four animals will be used for the dose. In the dose response study, each experiment will involve up to 5 groups of animals (a control group and 4 groups of animals treated with varying doses of the compound). Experimental groups will contain 3-4 animals/group, since this sample size is commonly used in the literature and has been found appropriate based on our own experience. The animals are treated with test compounds once or twice daily for 4 days in the mid-luteal phase of the menstrual cycle to assess the efficacy of the compounds on the reproductive parameters menstruation. 2. Procedures Initially, animals are characterized in terms of their reproductive cyclicity by observing time of menstruation. Only those animals with two consecutive normal cycles are used to evaluate test compounds. […] will be determined by daily gross examination for vaginal bleeding. In each experiment, animals will be treated once or twice daily IV, IM, SC or PO with the test compound. Appropriate vehicles will be determined for each route of administration and will be specified through protocol amendments. […]

Compound `Cn1c(C#N)ccc1-c1cc(F)c2c(c1)C(C)(C)C(=O)N2` [5-(7-fluoro-3,3-dimethyl-2-oxo-2,3-dihydro-1H-indol-5-yl)-1-methyl-1H-pyrrole-2-carbonitrile] has an AUC(0-inf) ([1]; read-out: exposure (AUC0-∞)) of 578 ng·h/mL, a half-life ([1]; read-out: mean half life (t1/2) (converted)) of 8.8 h and an ED50 [2] of 0.1 mg/kg. The “induction of early onset of menses” value (menses induction) was 4 out of 5.
